Measured values as given in patent publication US11746343B2, “Wheat plants having increased resistance to imidazolinone herbicides” (Northwest Plant Breeding Company, priority 2001, dated 2023).

How the values were obtained:
[1] = system: AHAS enzyme from wild type Gunner wheat; assay: in vitro AHAS enzyme activity, enzyme extracted from wild type wheat; format: biochemical, Triticum aestivum; design: unit of the concentration uncertain
Excerpt: (§1) Both the AP205CL and AP602CL wheat plants are tolerant to imidazolinone herbicides due to a mutation of the AHAS enzyme that is resistant to inhibition by these herbicides in vitro. […] The values in FIG. 1 are expressed as a percent of uninhibited activity. […] This activity continues to decline to nearly 100 percent inhibition of the enzyme at higher herbicide concentrations ([…]). In contrast, the AHAS enzyme extracted from herbicide tolerant AP205CL plants retains nearly 90 percent of its activity at the […] imazamox concentration, and approximately one third of its activity at the higher (50 µM to 100 µM) concentrations. The AHAS enzyme extracted from herbicide tolerant AP602CL plants retains nearly 80-100 percent of its activity at the […] imazamox concentration, and nearly half of its activity at the higher ([…]) concentrations. These levels of activity are sufficient to allow the tolerant wheat plants to survive the application of imazamox, as was observed during the selection process (Example 1).
(§2) AHAS is known to be feedback inhibited by the branched chain amino acids. Valine and leucine in combination are especially effective inhibitors.

[2] = system: AHAS enzyme extracted from herbicide tolerant AP205CL plants; assay: in vitro AHAS enzyme activity, enzyme extracted from AP205CL plants; format: biochemical, Triticum aestivum
Excerpt: as §1, §2

[3] = system: AHAS enzyme extracted from herbicide tolerant AP602CL plants; assay: in vitro AHAS enzyme activity, enzyme extracted from AP602CL plants; format: biochemical, Triticum aestivum
Excerpt: as §1, §2

[4] = system: AHAS extracted from Madsen1; assay: in vitro AHAS activity, Madsen1 compared to wild type Madsen; format: biochemical, Triticum aestivum
Excerpt: Because the tolerance in Madsen1 is due to a mutation in the AHAS enzyme rendering it resistant to inhibition by imidazolinone herbicides, the in vitro activity of AHAS extracted from wild type plants (not having the mutation for tolerance) can be compared to the in vitro activity of AHAS extracted from tolerant plants in the presence of varying concentrations of an imidazolinone (IMI) herbicide. Madsen1 was compared to the wild type variety Madsen.

Madsen1 wheat plants = assay: greenhouse trial of tolerance of Madsen1 to imazamox; format: in vivo, Triticum aestivum; settings: 40 and 80 g/ha, 14 days after treatment, control Teal
Experimental: Madsen1 was evaluated for tolerance to the imidazolinone herbicide imazamox at 40 and 80 g/ha in a greenhouse trial. The susceptible wheat cultivar Teal was used as a control. Evaluation was made 14 days after treatment. Injury was scored on a 0-9 scale, 0 representing no injury and 9 representing plant death.

Madsen1 wheat line = assay: selection of tolerant Madsen line (M2 field, M3 greenhouse); format: in vivo, Triticum aestivum
Experimental: Seeds of the soft white winter wheat variety Madsen, were pre-soaked in tap water. After decanting the tap water, a solution of 0.03% EMS and 0.02% DES was poured into the seed container. The container was shaken every 10-15 minutes during the course of a two-hour treatment. The EMS and DES solution was decanted and a solution of 0.02% sodium azide in 0.001 M phosphate buffer was added. The container again was shaken every 10-15 minutes during the course of a two-hour treatment. Seeds were then rinsed in tap water and dried. After drying, seeds were planted. Planted seeds represented the M1 generation. M1 plants were allowed to self-pollinate and the M2 seed harvested as a bulk. Approximately 0.2 hectares of M2 seed were planted in the field and resultant plants treated with an imazamox rate of 40 g. ai/ha. Twelve M2 plants were identified as tolerant. These plants were dug, and sent to Pullman, Wash. for vernalization and M3 seed production. M3 seed from each of the M2 plants were planted in the greenhouse and resultant plants were vernalized for 8 weeks, then treated with 80 g. ai/ha of Imazamox. Plants were selected based upon observed levels of tolerance and repotted for seed production. The M2:3 line designated Madsen1 selected as tolerant to 40 g/ha imazamox as an M2 was confirmed as tolerant to imazamox at the 80 g/ha rate applied to M3 progeny.

[5] = system: HRS 198205 (AP205CL) wheat plants; assay: field plots and seed increases sprayed with imazamox, HRS 198205 / AP205CL; format: in vivo, Triticum aestivum
Experimental: (§3) Progeny seed of HRS 198205 and HRS198208 were collected and planted in the field. Field plots were sprayed with imazamox herbicide at 80 g. a.i./ha.+1.0% Sun-It adjuvant (v/v). […] Additionally, seed harvested from plots of five of the HRS198208 sub-lines were combined into a single lot that was designated AP602CL (referred to above as Gunner IMI 208). Seed increases were conducted at several locations. All seed increases were sprayed with imazamox herbicide at 40 g. a.i./ha+0.25% (v/v) non-ionic surfactant.

[6] = system: HRS198208 (AP602CL) wheat plants; assay: field plots and seed increases sprayed with imazamox, HRS198208 / AP602CL; format: in vivo, Triticum aestivum
Experimental: as §3

COCc1cnc(C2=NC(C)(C(C)C)C(=O)N2)c(C(=O)O)c1 (stereo not drawn) [imazamox]
inhibition of the AHAS enzyme ([1]; higher herbicide concentrations (100 (unit uncertain))): ~100% | reduction of AHAS activity ([1]; low concentration (1 (unit uncertain)) of imazamox): 1 to 35% | AHAS activity retained ([2]; 1 M imazamox): ~90% | AHAS activity retained (fraction of its activity) ([2]; higher (50 M to 100 µM) imazamox concentrations): approximately one third | AHAS activity retained ([3]; 1 M imazamox): 80-100% | AHAS activity retained (fraction of its activity) ([3]; higher (50 µM to 100 µM) imazamox concentrations): half | residual uninhibited AHAS ([4]; 100 μM imazamox, Madsen1): sufficient to provide a herbicide tolerant response | uninhibited AHAS enzyme activity as imazamox concentration increased ([4]; Madsen1 compared to wild type Madsen): decreased faster in wild type lines than in Madsen) | tolerance (injury scored on a 0-9 scale) (Madsen1 wheat plants): has tolerance | tolerance of M2 plants (Madsen1 wheat line; 40 g/ha imazamox, field, M2): tolerant | tolerance of M3 progeny (Madsen1 wheat line; 80 g/ha imazamox, greenhouse, M3 progeny): tolerant | herbicide susceptible plants in seed increases ([5]; 40 g. a.i./ha + 0.25% (v/v) non-ionic surfactant, AP205CL): No herbicide susceptible plants were observed | tolerance in field plots ([5]; 80 g. a.i./ha + 1.0% Sun-It adjuvant (v/v), HRS 198205): same level of acceptable tolerance | herbicide susceptible plants in seed increases ([6]; 40 g. a.i./ha + 0.25% (v/v) non-ionic surfactant, AP602CL): No herbicide susceptible plants were observed | tolerance in field plots ([6]; 80 g. a.i./ha + 1.0% Sun-It adjuvant (v/v), HRS198208): same level of acceptable tolerance
